Test: Inhibition of Malassezia globosa beta-carbonic anhydrase preincubated for 15 mins prior to testing by phenol red-based stopped-flow CO2 hydration assay

SMILES | Ki
O=C(O)C1CCCCN1C(=S)S (configuration not stated) | 2400 nM
S=C(S)N[C@H]1CN2CCC1CC2 | 490 nM
S=C(S)N[C@@H]1CN2CCC1CC2 | 724 nM
O=C(O)C1CCCN(C(=S)S)C1 (configuration not stated) | 718 nM
O=C(O)[C@@H]1CCCN(C(=S)S)C1 | 577 nM
CC1COCCN1C(=S)S (configuration not stated) | 660 nM
O=C(CN1CCN(C(=S)S)CC1)NC1CCCCC1 | 801 nM
CC(C)(C)OC(=O)NC1CCCN(C(=S)S)C1 (configuration not stated) | 644 nM
S=C(S)N1CCCCC1 | 773 nM
S=C(S)NC1CN2CCC1CC2 (racemic) | 643 nM
CC(=O)Nc1nnc(S(N)(=O)=O)s1 [ACETAZOLAMIDE] | 74000 nM

Next, values leading:

Ki | SMILES
383 nM | OCCCCCNC(=S)S
678 nM | OC1CCCN(C(=S)S)C1 (configuration not stated)
929 nM | O=C(O)[C@H]1CCCN(C(=S)S)C1
556 nM | O=C(O)C1CCN(C(=S)S)CC1
4740 nM | O=C(O)C1COCCN1C(=S)S (configuration not stated)
4620 nM | S=C(S)NCCc1ccccc1
914 nM | NS(=O)(=O)c1ccc(CCNC(=S)S)cc1
6240 nM | OCCCCNC(=S)S
3190 nM | OCCCNC(=S)S
885 nM | CC(=O)NC1CCCN(C(=S)S)C1 (configuration not stated)
2980 nM | CN(C)CCNC(=S)S
